The conditions of data set [1]: cited from earlier work.
Data set [2] can be described thus: Moisture sorption/desorption (DVS), hygroscopicity. It counts as physicochemical. The method, then: Moisture sorption/desorption data was collected on a DVS Advantage, a DVS Adventure, or a DVS Intrinsic (SMS Surface Measurements Systems) moisture balance system. The sorption/desorption isotherms were measured stepwise in a range from 0%-RH to 90%-RH at typically 25° C. A weight change of typically <0.001%/min was chosen as criterion to switch to the next level of relative humidity (with a maximum equilibration time of typically 24 hours, if the weight change criterion was not met). The data were corrected for the initial moisture content of the samples by taking the weight after drying of the samples at 0%-RH as zero point.
The hygroscopicity of a given substance was characterized (by close analogy with the European Pharmacopoeia) by the increase in mass when the relative humidity was raised from 0%-RH to 90%-RH:
European Pharmacopoeia-8″ Edition (2014), Chapter 5.11.

Data set [3] can be described thus: Thermogravimetric analysis (TGA). The data set is classed as physicochemical. Conditions: heating rate 5 K/min under nitrogen, FIG. 3.
Experimental: Thermogravimetric analyses (TGA) were performed on a Mettler-Toledo™ thermogravimetric analyzer (TGA/DSC1 or TGA/DSC3+). System suitability tests were performed with Hydranal as reference substance and calibrations using Aluminum and Indium as reference substances. For the thermogravimetric analyses, approx. 5 to 15 mg (about 7.197 mg of Form B) of sample were placed in aluminum pans, accurately weighed and hermetically closed with perforation lids. Prior to measurement, the lids were automatically pierced resulting in approx. 0.5 mm pin holes. The samples were then heated under a flow of nitrogen of about 50 mL/min using a heating rate of 5 K/min to a maximum temperature of typically 350° C.
Data set [4] can be described thus: Thermodynamic stability of the solid form. It counts as physicochemical.

`CC(C)(C)c1nc(-c2cccc(NS(=O)(=O)c3c(F)cccc3F)c2F)c(-c2ccnc(N)n2)s1` [Dabrafenib]: the brain permeability result in data set [1] is “very poor”.

Turning to `COC(=O)N[C@@H](C)CNc1nccc(-c2cn(C(C)C)nc2-c2cc(Cl)cc(NS(C)(=O)=O)c2F)n1` [Encorafenib], the brain permeability entry in data set [1] is given as “very poor”.

For the compound `CCCS(=O)(=O)Nc1ccc(F)c(C(=O)c2c[nH]c3ncc(-c4ccc(Cl)cc4)cc23)c1F` [Vemurafenib], the brain permeability entry in data set [1] was “very poor”.

In the case of `Cn1cnc2ccc(Oc3c(F)ccc(NS(=O)(=O)N4CC[C@@H](F)C4)c3C#N)cc2c1=O` [Form B, (3R)—N-[2-cyano-4-fluoro-3-(3-methyl-4-oxo-quinazolin-6-yl)oxy-phenyl]-3-fluoro-pyrrolidine-1-sulfonamide], the “water uptake according to European Pharmacopeia” value in data set [2] (0%-RH to 90%-RH) is under 0.2%. In data set [2] (relative humidity raised from 0%-RH to 90%-RH, typically 25° C.), the hygroscopicity class result is “non-hygroscopic (weight increase Dm < 0.2%)”. Further, the “mass loss (TGA)” value in data set [3] is given as 0.087%. In addition, the “thermodynamic stability of solid form” value in data set [4] is “thermodynamically stable form”.

These data come from patent US20260167627A1, “NEW SOLID FORMS OF (3R)-N-[2-CYANO-4-FLUORO-3-(3-METHYL-4-OXO-QUINAZOLIN-6-YL)OXY-PHENYL]-3-FLUORO-PYRROLIDINE-1-SULFONAMIDE” (Hoffmann-La Roche Inc., priority 2023, published 2026).
